How the values were obtained:
rats = test: Metabolic cage studies; format: in vivo, rat
Experimental: Six rats were individually housed in Nalgene metabolism cages (Rodent Metabolism Cages for 150-300 g rats, VWR Scientific). Water and food were provided ad libidum. After 5-7 days of habituation, two baseline 24-hour urine collections were obtained. Then, an osmotic minipump containing purified porcine RLX was implanted (4 μg/hour). […] Food and water intake, as well as urinary flow rate were measured by gravimetric technique. The urinary excretion of sodium, cyclic guanosine monophosphate, and NOx were also determined. The measurements made during the two baseline collections were averaged, as were the measurements made during the three post-relaxin collections.
Plasma osmolality was measured using a freezing-point depression instrumentation osmometer (Model 3MO, Advanced Instruments, Needham Heights, Mass.). Plasma and urine IN and PAH were assayed by standard techniques. Urinary sodium concentration was measured by ion selective electrode (Sodium-Potassium Chemistry Module, Beckman Instruments, Inc., Brea, Calif.). Urinary cGMP was determined by specific radioimmunoassay as previously described. Conrad and Vernier (1989) Am. J. Physiol. 257:R847-R853. Urinary NOX was measured by reduction of nitrate to nitrite, the latter determined by the Griess reaction which produces a calorimetric product measured at 540 nm (Nitrate/Nitrite Colorimetric Assay Kit, Cayman Chemical, Ann Arbor, Mich.).

female rats = test: rhRLX for 5 days in female rats with infusion of ETB receptor antagonist RES-701-1 or its vehicle; format: in vivo, rat
Experimental: After surgical recovery, an osmotic minipump (model 2ML1, Alza Co., Palo Alto Calif.) containing either recombinant human relaxin (rhRLX; n=9 rats) or vehicle (n=8) was implanted subcutaneously on the back using light ether anesthesia. The infusion rate of rhRLX was 4 μg/hour. Experiments were conducted on day 5 of rhRLX or vehicle administration. MAP and renal function were measured as described above.
The technique of urine collection was again reliable. After reaching steady-state, the excretion rates of IN and PAH at baseline were 99±3 and 100±2% of their respective infusions for the rats administered rhRLX, and 100±2 and 99±2% for those given vehicle. Following the determination of baseline MAP and renal function, an infusion of RES-701-1, a selective endothelin type B (ETB) receptor antagonist (Conrad et al. (1999) Am. J. Physiol. 272:F767-F776; and Tanaka et al. (1994) Mol. Pharmacol. 45:724-730), was started at a rate of 10 μg/minute (flow rate 12 μl/minute) through the venous catheter. […] At the end of the experiment, 1.0 ml of blood was collected for determination of serum rhRLX.
In an additional three rats each administered rhRLX or vehicle, identical experimental procedures as described above were applied, except that the vehicle for RES-701-1 was infused instead of RES-701-1.

THP-1 cells = test: THP-1 cells: VEGF and bFGF mRNA induction; format: cell-based, human; settings: 100 ng/ml for 3 hours (FIG. 9)
Experimental: Sense and anti-sense primers for use with the real time RT-PCR, ABI Prism 7700 Sequence Detection System were designed using the PrimerExpress version 1.0 software (PE Applied Biosystems, Inc.). Rat and human specific primer/probe sets included those for GAPDH, bFGF, the VEGF 164 aa or 120 aa rat isoforms, and their respective human homologues (VEGF 165 and VEGF 121). ABI PRISM specific primer/probes were purchased from BioSource International Inc. or PE Applied Biosystems.
RT-PCR was performed on 150 ng for the analysis of VEGF and bFGF mRNA expression. Ten nanograms of total RNA was used for GAPDH niRNA expression. […] Data were analyzed using Sequence Detector v1.6.3 software (Applied Biosystems/PE). […]
Because macrophages are the inflammatory cells predominantly responsible for the angiogenic response that occurs during healing, a monocyte/macrophage cell line shown previously to bind relaxin with high affinity (THP-1) (Parsell et al. (1996) J. Biol. Chem. 271:27936-27941) was tested for relaxin inducibility of VEGF and bFGF. […] In order to determine whether the increase in VEGF mRNA observed following short-term relaxin treatment was reflected by an elevation in secreted VEGF protein, THP-1 cells were treated with relaxin (0.01-100 ng/ml) for 24 h, the conditioned media collected, and VEGF content in the media quantified by ELISA. […]

[1] = rhRLX day 5, V, vehicle for RES-701-1

## Porcine RLX: lyophilized, purified porcine relaxin (Sherwood and O'Byrne 1974), dissolved in Ringer's solution
rats; Baseline
  Food intake: 13.2 ± 1.0 g
  Urinary NOx excretion: 4.8 ± 0.5 μmole/24hours
  Urinary cGMP excretion: 32.2 ± 1.9 nmole/24 hours
  Urinay sodium excretion: 438.8 ± 34.4 μEq/24hours
  Urine output: 9.1 ± 1.7 ml/24 hours
  Water intake: 19.1 ± 2.7 mL
rats; Day 2 of RLX 4 μg/hour s.c.
  Food intake: 15.5 ± 1.5 g
  Urinary NOx excretion: 6.0 ± 1.0 μmole/24hours
  Urinary cGMP excretion: 26.5 ± 2.5 nmole/24 hours
  Urinay sodium excretion: 800.2 ± 77.2 μEq/24hours
  Urine output: 11.4 ± 2.2 ml/24 hours
  Water intake: 20.1 ± 3.4 mL
rats; Day 5 of RLX 4 μg/hour s.c.
  Food intake: 16.7 ± 1.0 g
  Urinary NOx excretion: 5.9 ± 0.7 μmole/24hours
  Urinary cGMP excretion: 28.6 ± 3.8 nmole/24 hours
  Urinay sodium excretion: 477.8 ± 57.9 μEq/24hours
  Urine output: 8.8 ± 0.9 ml/24 hours
  Water intake: 23.6 ± 3.3 mL
rats; Post-relaxin day 4-18
  Food intake: 15.3 ± 0.5 g
  Urinary NOx excretion: 6.1 ± 0.9 μmole/24hours
  Urinary cGMP excretion: 32.7 ± 3.8 nmole/24 hours
  Urinay sodium excretion: 480.69 ± 54.4 μEq/24hours
  Urine output: 9.1 ± 1.1 ml/24 hours
  Water intake: 19.1 ± 2.6 mL

## rhRLX: recombinant human relaxin, identical in amino acid sequence to the product of the human H2 gene; A chain of 24, B chain of 29 amino acids
Female rats; rhRLX day 5, B, baseline
  ERPF: 11220
  ERVR: 6.67
  GFR: 3082
  MAP: 112 ± 7
Female rats; [1]
  ERPF: 10464
  ERVR: 6.97
  GFR: 3112
  MAP: 115 ± 8
Female rats; rhRLX for 5 days (FIG. 4)
  ERPF at baseline compared to vehicle infusion: significantly increased
  ERVR reduction at baseline compared to vehicle infusion: 20-30%
  GFR at baseline compared to vehicle infusion: significantly increased
  MAP at baseline compared to vehicle infusion: not significantly affected
THP-1 cells
  Transcripts for VEGF: specifically upregulated

From patent publication US6723702B2, “Use of relaxin treat diseases related to vasoconstriction” (RAS Medical, Inc., priority 2000, dated 2004)
